# Results: patent US20160264593A1 (priority 2013, published 2016)
# Like-named read-outs stand apart in the source and are kept apart here.
# Assay: Pharmacokinetic study of 157 (and metabolite endothal) in SD rats, iv and po; plasma, liver, brain
# Assay type: in vivo
# Settings: for AUC(0-inf) / AUC / Cmax / MRT last / half-life / concentration at 0.25 h / concentration at 1 h: 1.5 mg/kg; for AUC: read-out: AUC; for MRT last: read-out: MRT (0-t)
# Experimental: The blood, liver and brain tissue samples were collected at predetermined times from rats. […] Compound were diluted shortly before use in 4% sodium bicarbonate for sterile injection (this is the standard pediatric solution of NaHCO3 with a pH of about 8.5).
# Compound 153 was freshly prepared by diluting the drugs shortly before use in 4% sodium bicarbonate for sterile injection (this is the standard pediatric solution of NaHCO3 with a pH of about 8.5). The final concentrations of 153 solutions were 0.25 mg/mL. The 153 solutions were administered via iv or po route at dose volume of 5 ml/kg according to the latest body weight. Compound 157 was freshly prepared by diluting the drugs shortly before use in 4% sodium bicarbonate for sterile injection (this is the standard pediatric solution of NaHCO3 with a pH of about 8.5). The final concentrations of […] solutions were 0.3 mg/mL. The 157 solutions were administered via iv or po route at dose volume of 5 ml/kg according to the latest body weight.
# Twelve (12) female SD rats per group were dosed by iv with 153 or 157. The rats were fasted overnight prior to dosing, with free access to water. Foods were withheld for 2 hours post-dose. Blood, liver and brain tissue samples in two animals each group were collected at each time point, within 10% of the scheduled time for each time point. Two extra animals were used for analytic method development.
# Blood (>0.3 mL) were collected via aorta abdominalis in anaesthetic animals into tubes containing heparin at 15 min, 1, 2, 6, 10 and 24 hours after iv administration. Liver and brain tissues were collected immediately after animal death. The liver and brain tissues were excised and rinsed with cold saline to avoid blood residual. Upon collection, each sample was placed on ice and the blood samples were subsequently centrifuged (4° C., 11000 rpm, 5 min) to separate plasma. The obtained plasma, liver and brain tissue samples were stored at −70° C. until LC-MS/MS analysis.
# Two (2) female SD rats per group were dosed by po with 153 or 157. The rats were fasted overnight prior to dosing, with free access to water. Foods were withheld for 2 hours post-dose. Blood samples (>0.3 mL) were collected via aorta abdominalis in anaesthetic animals into tubes containing heparin at 30 min, 1, 2, 6, 10 and 24 hours after po administration.
# To each sample, 30 μL IS-D (for blank samples, 20 μL acetonitrile:water (1:1) was added) and 300 μl acetonitrile was added. The sample mixture was vortexed for approximately 3 min. After centrifugation at 10000 rpm for 5 min at 4° C., 100 μL of the upper layer was transferred to a new tube and added 200 μL 0.4% formic acid in water (pH6.0). The mixture was vortexed for approximately 3 min before injected onto the LC/MS/MS system for analysis.
# On the day of the assay, the frozen liver and brain samples were thawed unassisted at room temperature. An about 200 mg weighed sample of each thawed tissue was placed into a plastic tube with water (0.6 mL) to facilitate homogenization. Tissue processing was conducted using a homogenizer for approximately 1 min, 100 μl homogenate was transferred into a fresh Eppendorf tube. To each tube, 50 μL IS-D was added and mixed. Then 500 μl acetonitrile was added and the sample mixture was vortexed for approximately 3 min. After centrifugation at 10000 rpm for 5 min at 4° C., 100 μL of the upper layer was transferred to a new tube and evaporate the supernatant to dryness at 35° C. Reconstitute the residue with 200 μL of 0.4% formic acid in water (pH 6.0), and vortex for 3 min, submit for LC-MS/MS analysis.
# Frozen unknown plasma samples were completely thawed at room temperature and vortexed thoroughly. With a pipette, 50 μL of plasma was transferred into a 2.0 mL Eppendorf tube. 50 μL of 0.1N HCl and 800 μL ethyl acetate were added into each sample. The sample mixture was vortexed for approximately 3 min.
# [1] = female, SD (Sprague-Dawley), rat, in vivo, iv, 157 in plasma, IV 1.5 mg/kg, Mean
# [2] = female, SD (Sprague-Dawley), rat, in vivo, iv, 157 in plasma, IV 1.5 mg/kg, rat 1
# [3] = female, SD (Sprague-Dawley), rat, in vivo, iv, 157 in plasma, IV 1.5 mg/kg, rat 2
# [4] = female, SD (Sprague-Dawley), rat, in vivo, po, 157 in plasma, PO 1.5 mg/kg, Mean
# [5] = female, SD (Sprague-Dawley), rat, in vivo, po, 157 in plasma, PO 1.5 mg/kg, rat 1
# [6] = female, SD, rat, in vivo, iv, iv 1.5 mg/kg, Mean, read-out: 157 brain concentration
# [7] = female, SD, rat, in vivo, iv, iv 1.5 mg/kg, Mean, read-out: 157 liver concentration
# [8] = female, SD, rat, in vivo, iv, iv 1.5 mg/kg, Rat 1, read-out: 157 brain concentration
# [9] = female, SD, rat, in vivo, iv, iv 1.5 mg/kg, Rat 2, read-out: 157 brain concentration
smiles,measurement,setting,value
"CCCCCCCOC(=O)C1C2CCC(O2)C1C(=O)N1CCN(C)CC1 (stereo not shown) [Compound 157, 3-(4-Methylpiperazine-1-carbonyl)-7-oxa-bicyclo[2,2,1]heptane-2-carboxylic acid heptyl ester]",F,"157, PO 1.5 mg/kg vs IV 1.5 mg/kg, Mean",6.78%
same,conversion to endothal in the plasma (statement),157 administered to rats,converted to endothal
same,Tmax,"157 in Brain, iv 1.5 mg/kg, Mean",15 min
same,Tmax,"157 in Brain, iv 1.5 mg/kg, rat 1",15 min
same,Tmax,"157 in Brain, iv 1.5 mg/kg, rat 2",15 min
same,Tmax,"157 in Liver, iv 1.5 mg/kg, rat 1",15 min
same,Tmax,"157 in Liver, iv 1.5 mg/kg, rat 2",15 min
same,Tmax,"157 in plasma, IV 1.5 mg/kg, Mean",15 min
same,Tmax,"157 in plasma, IV 1.5 mg/kg, rat 2",15 min
same,Tmax,"157 in plasma, PO 1.5 mg/kg, rat 1",30 min
same,AUClast of 157 in brain,157 iv 1.5 mg/kg,24.6 ng·h/g
same,AUClast of 157 in liver,157 iv 1.5 mg/kg,152 ng·h/g
same,oral availability of 157 (statement),157 po 1.5 mg/kg,poorly orally available
same,Tmax,"female, SD (Sprague-Dawley), in vivo, 157 in plasma, IV 1.5 mg/kg, rat 1, read-out: Tmax",15 min
same,AUC(0-inf),[1],47.2 ng·h/mL
same,AUC,[1],47.2 ng·h/mL
same,Cmax,"female, SD (Sprague-Dawley), rat, in vivo, iv, 157 in plasma, IV 1.5 mg/kg, Mean, read-out: Cmax",115 ng/mL
same,MRT last,[1],20.5 min
same,half-life,"female, SD (Sprague-Dawley), rat, in vivo, iv, 157 in plasma, IV 1.5 mg/kg, Mean, read-out: T1/2 (converted)",23.5 min
same,AUC(0-inf),[2],47.1 ng·h/mL
same,AUC,[2],47.1 ng·h/mL
same,Cmax,"female, SD (Sprague-Dawley), rat, in vivo, iv, 157 in plasma, IV 1.5 mg/kg, rat 1, read-out: Cmax",116 ng/mL
same,MRT last,[2],20 min
same,half-life,"female, SD (Sprague-Dawley), rat, in vivo, iv, 157 in plasma, IV 1.5 mg/kg, rat 1, read-out: T1/2 (converted)",24.5 min
same,AUC(0-inf),[3],47.3 ng·h/mL
same,AUC,[3],47.3 ng·h/mL
same,Cmax,"female, SD (Sprague-Dawley), rat, in vivo, iv, 157 in plasma, IV 1.5 mg/kg, rat 2, read-out: Cmax",114 ng/mL
same,MRT last,[3],20.9 min
same,half-life,"female, SD (Sprague-Dawley), rat, in vivo, iv, 157 in plasma, IV 1.5 mg/kg, rat 2, read-out: T1/2 (converted)",22.4 min
same,AUC(0-inf),[4],3.2 ng·h/mL
same,AUC,[4],3.2 ng·h/mL
same,Cmax,"female, SD (Sprague-Dawley), rat, in vivo, po, 157 in plasma, PO 1.5 mg/kg, Mean, read-out: Cmax",6.14 ng/mL
same,MRT last,[4],56.8 min
same,half-life,"female, SD (Sprague-Dawley), rat, in vivo, po, 157 in plasma, PO 1.5 mg/kg, Mean, read-out: T1/2 (converted)",24.2 min
same,AUC(0-inf),[5],3.4 ng·h/mL
same,AUC,[5],3.4 ng·h/mL
same,Cmax,"female, SD (Sprague-Dawley), rat, in vivo, po, 157 in plasma, PO 1.5 mg/kg, rat 1, read-out: Cmax",5.92 ng/mL
same,MRT last,[5],59.3 min
same,half-life,"female, SD (Sprague-Dawley), rat, in vivo, po, 157 in plasma, PO 1.5 mg/kg, rat 1, read-out: T1/2 (converted)",26.2 min
same,Tmax,"female, SD (Sprague-Dawley), rat, in vivo, 157 in plasma, PO 1.5 mg/kg, Mean, read-out: Tmax",30 min
same,half-life,"female, SD, rat, in vivo, iv, 157 iv 1.5 mg/kg, read-out: T1/2 of 157 in brain (converted)",9.72 min
same,half-life,"female, SD, rat, in vivo, iv, 157 iv 1.5 mg/kg, read-out: T1/2 of 157 in liver (converted)",48.8 min
same,half-life,"female, SD, rat, in vivo, iv, 157 iv 1.5 mg/kg, read-out: T1/2 of 157 in plasma (converted)",23.5 min
same,Cmax,"female, SD, rat, in vivo, iv, 157 iv 1.5 mg/kg, read-out: mean Cmax of 157 in brain",60 ng/g
same,Cmax,"female, SD, rat, in vivo, iv, 157 iv 1.5 mg/kg, read-out: mean Cmax of 157 in liver",297 ng/g
same,Cmax,"female, SD, rat, in vivo, iv, 157 iv 1.5 mg/kg, read-out: mean Cmax of 157 in plasma",115 ng/mL
same,concentration at 0.25 h,[6],60 ng/g
same,concentration at 0.25 h,[7],297 ng/g
same,concentration at 0.25 h,[8],60 ng/g
same,concentration at 0.25 h,[9],60 ng/g
same,concentration at 1 h,[6],2.4 ng/g
same,concentration at 1 h,[7],23.5 ng/g
same,concentration at 1 h,[8],1.99 ng/g
same,concentration at 1 h,"female, SD, rat, in vivo, iv, iv 1.5 mg/kg, Rat 1, read-out: 157 liver concentration",29.4 ng/g
same,concentration at 1 h,[9],2.8 ng/g
